Test results as given in article PMC5146859, “Phase 1/2 study of pacritinib, a next generation JAK2/FLT3 inhibitor, in myelofibrosis or other myeloid malignancies” (Journal of Hematology & Oncology, 2016).

Tested on: patients with MF
Assay: Phase 2 spleen response (volume by MRI, length by physical examination)
Assay type: in vivo, human
Details: phase 2, 400 mg QD
Experimental: In phase 2, abdominal MRI to assess spleen and liver volume was performed on day 1 of cycles 1, 4, and 7 and then day 1 of every third cycle through cycle 25. Spleen size (length) was also assessed by manual palpation with each scheduled physical examination. The phase 2 study protocol was amended in September 2009 to include the MF Quality of Life and Symptoms Assessment Tool. […] The instrument was administered pre-dose on day 1 of cycles 1, 2, 4, 7, and 10 and then on day 1 of every third cycle through cycle 25.
The primary endpoint of the phase 2 component was the proportion of the efficacy population who achieved a ≥35% reduction in spleen volume from baseline at week 24, as measured by MRI. Spleen response rate was also assessed in terms of a ≥35% reduction in spleen volume by MRI up to week 24 and end of treatment and as a ≥50% reduction in spleen length by physical examination up to week 24 and end of treatment. Duration of response was not analyzed due to limitations in the proportion of responders. An exploratory endpoint was the proportion of patients with a ≥50% reduction in MF Quality of Life and Symptoms Assessment Tool at week 24 compared with baseline.
The planned sample size of 29 patients for the phase 2 component provided 80% power to detect a spleen response rate of ≥30% versus the null hypothesis of a response rate of ≤10%, with α = 0.05 (two-sided). The efficacy-evaluable population included those patients with a baseline and corresponding follow-up value. The safety population included all enrolled patients who received ≥1 dose of pacritinib.

Structure (SMILES): C1=C/COCc2cc(ccc2OCCN2CCCC2)Nc2nccc(n2)-c2cccc(c2)COC/1 [pacritinib, 11-(2-pyrrolidin-1-yl-ethoxy)-14,19-dioxa-5,7,26-triaza-tetracyclo[19.3.1.1(2,6). 1(8,12)]heptacosa-1(25),2(26),3,5,8,10,12(27),16,21,23-decaene]
- Evaluable patients achieving ≥35% spleen volume reduction by MRI (primary endpoint) (at week 24 (4/17)): 23.5%
- Patients achieving ≥50% spleen length reduction by physical examination (at week 24 (9/19)): 47.4%
- Patients achieving ≥35% spleen volume reduction by MRI (up to end of treatment (7/23)): 30.4%
- Patients achieving ≥50% spleen length reduction by physical examination (up to end of treatment (12/31)): 38.7%
